In US12180187B2, “1-phenyl-5-azinylpyrazolyl-3-oxyalkyl acids and their use for controlling unwanted plant growth” (BAYER AKTIENGESELLSCHAFT, priority 2019, dated 2024):

Legend:
MATIN [1] = test: Post-emergence action against MATIN, 1.28 kg/ha; assay type: in vivo, Tripleurospermum inodorum (Matricaria inodora); conditions: dosage 1280 g/ha, visual rating about 3 weeks after treatment vs untreated controls (100% = plants died)
Method in brief: (§1)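 Spray at one-leaf stage with WP/EC + 0.5% additive, 600 L water/ha. Greenhouse, optimum conditions, ~3 wk. Visual % control vs untreated; 0 = no effect, 100 = dead.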

AMARE [2] = test: Pre-emergence action against AMARE, 1280 g/ha; assay type: in vivo, Amaranthus retroflexus; conditions: scored visually after about 3 weeks vs untreated controls (100% = plants have died)
Method in brief: (§2)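 Pre-emergence pot test: seeds in sandy loam, soil-covered, sprayed on soil surface (WP/EC, 0.5% additive, 600 L/ha water); greenhouse ~3 wk; visual % effect vs untreated, 0–100%.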

ALOMY = test: Pre-emergence action against ALOMY, 1280 g/ha; assay type: in vivo, Alopecurus myosuroides; conditions: visual scoring after about 3 weeks vs untreated controls, 100% = plants have died, 0% = like control plants
Method in brief: as §2

ECHCG [3] = test: Post-emergence action against ECHCG, 1.28 kg/ha; assay type: in vivo, Echinochloa crus-galli; conditions: dosage 1280 g/ha, visual rating about 3 weeks after treatment vs untreated controls
Method in brief: as §1

LOLRI [4] = test: Post-emergence action against LOLRI, 1.28 kg/ha; assay type: in vivo, Lolium rigidum; conditions: dosage 1280 g/ha, visual rating about 3 weeks after treatment vs untreated controls
Procedure: (§3) • a) Seeds of mono- and dicotyledonous weed plants are placed in plastic pots in sandy loam soil (twin sowing with one species each of mono- or dicotyledonous weed plants per pot), covered with soil and cultivated in a greenhouse under controlled growth conditions. 2 to 3 weeks after sowing, the test plants are treated at the one-leaf stage. The compounds of the invention, formulated in the form of wettable powders (WP) or as emulsion concentrates (EC), are applied to the green parts of the plants as aqueous suspension or emulsion with addition of 0.5% additive at a water application rate equivalent to 600 litres per hectare. After the test plants have been kept in the greenhouse under optimum growth conditions for about 3 weeks, the activity of the preparations is rated visually in comparison to untreated controls. For example, 100% activity=the plants have died, 0% activity=like control plants. As shown by the results, compounds of the general formula (I) of the invention, in post-emergence treatment, have very good herbicidal efficacy (90% to 100% herbicidal action) against harmful plants such as Abutilon theophrasti, Digitaria sanguinalis, Echinochloa crus-galli, Matricaria inodora, Poa annua, at an application rate of 1.28 kg of active substance per hectare.

LOLRI [5] = test: Pre-emergence action against LOLRI, 1280 g/ha; assay type: in vivo, Lolium rigidum; conditions: visual scoring after about 3 weeks vs untreated controls, 100% = plants have died, 0% = like control plants
Method in brief: as §2

VERPE [6] = test: Pre-emergence action against VERPE, 1280 g/ha; assay type: in vivo, Veronica persica; conditions: scored visually after about 3 weeks vs untreated controls (100% = plants have died)
Method in brief: as §2

STEME [7] = test: Pre-emergence action against STEME, 1280 g/ha; assay type: in vivo, Stellaria media; conditions: scored visually after about 3 weeks vs untreated controls (100% = plants have died)
Method in brief: as §2

POAAN [8] = test: Post-emergence action against POAAN, 1.28 kg/ha; assay type: in vivo, Poa annua; conditions: dosage 1280 g/ha, visual rating about 3 weeks after treatment vs untreated controls
Method in brief: as §1

MATIN [9] = test: Pre-emergence action against MATIN, 1280 g/ha; assay type: in vivo, Tripleurospermum inodorum (Matricaria inodora); conditions: scored visually after about 3 weeks vs untreated controls (100% = plants have died)
Method in brief: as §2

POAAN [10] = test: Pre-emergence action against POAAN, 1280 g/ha; assay type: in vivo, Poa annua; conditions: visual scoring after about 3 weeks vs untreated controls, 100% = plants have died, 0% = like control plants
Method in brief: as §2

ECHCG [11] = test: Pre-emergence action against ECHCG, 1280 g/ha; assay type: in vivo, Echinochloa crus-galli; conditions: visual scoring after about 3 weeks vs untreated controls, 100% = plants have died, 0% = like control plants
Method in brief: as §2

DIGSA [12] = test: Pre-emergence action against DIGSA, 1280 g/ha; assay type: in vivo, Digitaria sanguinalis; conditions: visual scoring after about 3 weeks vs untreated controls, 100% = plants have died, 0% = like control plants
Method in brief: as §2

DIGSA [13] = test: Post-emergence action against DIGSA, 1.28 kg/ha; assay type: in vivo, Digitaria sanguinalis; conditions: dosage 1280 g/ha, visual rating about 3 weeks after treatment vs untreated controls
Method in brief: as §1

SETVI = test: Pre-emergence action against SETVI, 1280 g/ha; assay type: in vivo, Setaria viridis; conditions: visual scoring after about 3 weeks vs untreated controls, 100% = plants have died, 0% = like control plants
Method in brief: as §2

AMARE [14] = test: Post-emergence action against AMARE, 1.28 kg/ha; assay type: in vivo, Amaranthus retroflexus; conditions: dosage 1280 g/ha, visual rating about 3 weeks after treatment vs untreated controls (100% = plants died)
Method in brief: as §1

VERPE [15] = test: Post-emergence action against VERPE, 1.28 kg/ha; assay type: in vivo, Veronica persica; conditions: dosage 1280 g/ha, visual rating about 3 weeks after treatment vs untreated controls (100% = plants died)
Method in brief: as §1

STEME [16] = test: Post-emergence action against STEME, 1.28 kg/ha; assay type: in vivo, Stellaria media; conditions: dosage 1280 g/ha, visual rating about 3 weeks after treatment vs untreated controls (100% = plants died)
Procedure: as §3

ABUTH = test: Post-emergence action against ABUTH, 1.28 kg/ha; assay type: in vivo, Abutilon theophrasti; conditions: dosage 1280 g/ha, visual rating about 3 weeks after treatment vs untreated controls (100% = plants died)
Method in brief: as §1

Compound	Post-emergence action against MATIN (MATIN [1]) [%]	Pre-emergence action against AMARE (AMARE [2]) [%]	Pre-emergence action against ALOMY (ALOMY) [%]	Post-emergence action against ECHCG (ECHCG [3]) [%]	Post-emergence action against LOLRI (LOLRI [4]) [%]	Pre-emergence action against LOLRI (LOLRI [5]) [%]	Pre-emergence action against VERPE (VERPE [6]) [%]	Pre-emergence action against STEME (STEME [7]) [%]	Post-emergence action against POAAN (POAAN [8]) [%]	Pre-emergence action against MATIN (MATIN [9]) [%]	Pre-emergence action against POAAN (POAAN [10]) [%]	Pre-emergence action against ECHCG (ECHCG [11]) [%]	Pre-emergence action against DIGSA (DIGSA [12]) [%]	Post-emergence action against DIGSA (DIGSA [13]) [%]	Pre-emergence action against SETVI (SETVI) [%]	Post-emergence action against AMARE (AMARE [14]) [%]	Post-emergence action against VERPE (VERPE [15]) [%]	Post-emergence action against STEME (STEME [16]) [%]	Post-emergence action against ABUTH (ABUTH) [%]
Cc1ccc(-n2nc(OCC(=O)O)c(Br)c2-c2ccc(F)nc2)cc1 [VII-067]	90	100	100	100	100	100	100	100	100	100	100	100	100	100	100	100			
O=C(COc1nn(-c2ccccc2F)c(-c2ccc(F)nc2)c1Br)OCC1CCCO1 (centres unmarked) [VII-090]	90	100	100	100	90	100	100	100	100	100	100	100	100	100	100		100		
COC(=O)C(C)Oc1nn(-c2ccccc2)c(-c2ccnc(F)c2)c1Cl (centres unmarked) [VIII-007]	90	100		90	100	100	100	90	100	90	100	100	90	90	100	100	100	100	90
